Laboratory results from paper PMC5353720 (2017).

Test system: PSA-aptamer (DNA, aptamer) TTTTTAATTAAAGCTCGCCATCAAATAGCTTT
Test: extended-gate field-effect transistor (AptaFET)
Settings: PBS, 1 mM MgCl2 (incubation); PBS (readout); 500 nM highest tested; shift 2.7 ± 0.3 mV against 22.3 mV on TFV-aptamer; immobilised aptamer

binding: no
Compound: C[C@H](Cn1cnc2c(N)ncnc21)OCP(=O)(O)O
